The values that follow are results of earlier work, collected in patent publication US20220313772A1, “Method of Treating a Child with Central Precocious Puberty using an Extended Release Composition” (Tolmar International Limited, priority 2019, published 2022).

Molecules are shown by their SMILES.

For this data set the following is noted: in vivo.

As for `CCNC(=O)[C@@H]1CCCN1C(=O)[C@H](CCCNC(=N)N)NC(=O)[C@H](CC(C)C)NC(=O)[C@@H](CC(C)C)NC(=O)[C@H](Cc1ccc(O)cc1)NC(=O)[C@H](CO)NC(=O)[C@H](Cc1c[nH]c2ccccc12)NC(=O)[C@H](Cc1c[nH]cn1)NC(=O)[C@@H]1CCC(=O)N1` [Leuprolide acetate, leuprolide acetate], the “adverse effects at high dose” value is recorded as “no adverse effects differing from those observed with a 1 mg/day dose”.
